In patent US20250000868A1, “USE OF ADENOSINE A2B RECEPTOR AS TARGET IN DRUGS FOR PREVENTION AND/OR TREATMENT OF PRURITUS” (The Fourth Affiliated Hospital, ZJU, priority 2023, published 2025):
Entries after “also recorded” stand apart in the source; their conditions may differ.

Experiments:
adenosine A2B receptor [1] = target: T1, adenosine A2B receptor (Mus musculus, UniProt Q60614); assay: Histamine-induced scratching behavioral experiment; type: in vivo; conditions: for number of histamine-induced scratches: within 30 min before histamine 250 μg/50 μL s.c. neck, scratches recorded within 30 min
T1 construct: from tissue; host or cells: living mouse; intrathecal dosing, receptor expressed in dorsal root ganglion neurons
T1 sequence (Q60614 1-332): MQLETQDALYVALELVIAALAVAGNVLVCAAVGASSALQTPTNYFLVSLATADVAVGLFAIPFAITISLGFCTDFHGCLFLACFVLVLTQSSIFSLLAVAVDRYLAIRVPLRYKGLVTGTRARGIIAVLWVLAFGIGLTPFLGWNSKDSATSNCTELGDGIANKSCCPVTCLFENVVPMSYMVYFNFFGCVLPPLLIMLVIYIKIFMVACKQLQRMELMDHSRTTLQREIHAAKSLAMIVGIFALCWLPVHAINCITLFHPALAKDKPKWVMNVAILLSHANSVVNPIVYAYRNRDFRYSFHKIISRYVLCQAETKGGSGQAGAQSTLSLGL
Protocol: (§1) Refer to the prior art (Jang et al., 2015) for scratching behavior. The specific operation method was as follows: each mouse neck hair was shaved two days before the experiment, and the mouse was housed in a transparent organic plastic chamber to receive acclimatization training for two consecutive days, at least 1 h a day. Adjacent transparent plastic chambers were separated by a piece of white paper to eliminate mutual interference between mice. On the day of the experiment, histamine (250 μg/50 μL) was subcutaneously injected into the mouse neck and the mice were immediately placed in the transparent plastic chamber to record scratching behaviors within 30 min using a camera. One effective scratch was defined as follows: a mouse lifted its hind leg to scratch the skin at the […] injection site and put the hind leg down, and despite the number of scratches in the interval between lifting the hind leg and putting it down, an effective scratching behavior was considered. To evaluate the antipruritic effect of PSB-603, the mice received an intrathecal injection of PSB-603 (the administration dose was 10 μL, and the dosing concentration was 1 or 10 μM) within 30 min before histamine injection.
(§2) Using a pharmacological method, the adenosine A2B receptor activity is blocked by intrathecal injection of selective adenosine A2B receptor antagonist PSB-603. […] Moreover, alleviating the effect of PSB-603 on scratch is related to the dose. […] Therefore, inhibition of the adenosine A2B receptor is an effective way to treat pruritus.

adenosine A2B receptor [2] = target: T1, adenosine A2B receptor; assay: Chloroquine-induced scratching behavioral experiment; type: in vivo; conditions: for number of chloroquine-induced scratches: within 30 min before chloroquine 200 μg/50 μL s.c. neck, scratches recorded within 30 min
Protocol: as §1, with “the experiment, chloroquine (200 μg/50 μL)” for “the experiment, histamine (250 μg/50 μL)”, “concentration was 1, 10 or 20” for “concentration was 1 or 10”, “10 or 20 μM) within” for “1 or 10 μM) within”, “min before chloroquine injection.” for “min before histamine injection.”
as §2

[3] = PSB-603 intrathecal 10 μL at 10 μM

## CCCn1c(=O)[nH]c2nc(-c3ccc(S(=O)(=O)N4CCN(c5ccc(Cl)cc5)CC4)cc3)[nH]c2c1=O [PSB-603]
Adenosine A2B receptor [1]; [3]
  number of histamine-induced scratches: reduces the number of histamine-induced scratches
Adenosine A2B receptor [1]; PSB-603 intrathecal 10 μL at dose of 1 μM
  number of histamine-induced scratches: the number of animal scratches cannot be reduced
Adenosine A2B receptor [1]; intrathecal injection of PSB-603 in advance, 1 or 10 μM, FIG. 3C
  histamine-induced scratching behaviors, overall effect: dose-dependent inhibition; also recorded: can effectively prevent histamine-induced scratching behaviors
Adenosine A2B receptor [2]; [3]
  number of chloroquine-induced scratches: reduces the number of chloroquine-induced scratches
Adenosine A2B receptor [2]; PSB-603 intrathecal 10 μL at 20 μM
  number of chloroquine-induced scratches: reduces the number of chloroquine-induced scratches
Adenosine A2B receptor [2]; intrathecal injection of PSB-603 in advance, 1, 10 or 20 μM, FIG. 4
  chloroquine-induced scratching behaviors, overall effect: dose-dependent inhibition; also recorded: can effectively prevent chloroquine-induced scratching behaviors
